Measurements reported in patent US11827690B2, “ApoC-II mimetic peptides” (THE UNITED STATES OF AMERICA, as represented by the …, priority 2017, dated 2023).

Columns and labels:
[1] = target: T1, LPL inhibited by apoC-III (Bos taurus, UniProt P11151); assay: LPL activation assay with Intralipid as substrate and recombinant apoC-III as an inhibitor; assay type: biochemical; settings: Intralipid substrate, FIG. 31
T1 sequence (P11151 29-478): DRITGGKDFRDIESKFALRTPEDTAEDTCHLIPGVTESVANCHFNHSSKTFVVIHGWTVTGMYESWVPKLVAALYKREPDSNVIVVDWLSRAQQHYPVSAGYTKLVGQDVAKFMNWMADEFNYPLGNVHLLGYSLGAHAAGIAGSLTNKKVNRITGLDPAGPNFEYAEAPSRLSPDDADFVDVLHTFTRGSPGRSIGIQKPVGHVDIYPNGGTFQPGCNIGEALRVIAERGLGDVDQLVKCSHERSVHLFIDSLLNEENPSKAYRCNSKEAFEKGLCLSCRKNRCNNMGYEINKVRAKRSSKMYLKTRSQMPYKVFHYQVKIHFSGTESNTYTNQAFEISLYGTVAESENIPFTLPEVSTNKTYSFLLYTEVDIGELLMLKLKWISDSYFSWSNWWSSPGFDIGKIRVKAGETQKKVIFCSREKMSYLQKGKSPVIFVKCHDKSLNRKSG
Experimental: (§1) LPL activity assay: 10 μL of Intralipid, human plasma sample, or mouse plasma sample was added in each well using repeater pipette. 10 μL (or 15 μL in the wells with no LPL control) of PBS and 10 μL of 1% BSA was added in each well using repeater pipette. 10 μL of peptides were added to corresponding wells in vertical triplicates (lowest concentration is on a left, highest is on the right). The plate was spun down at 1000 RPM for 10 seconds to mix and to remove the solutions from the wall of each well. The plate was put on ice and 5 μL of LPL was added using repeater pipette. The plate was spun down again at 1000 RPM for 10 seconds. The plate was covered and put back on ice for an incubation of 30 min. The plate was then moved to 37° C. and incubated for 1 hour.
(§2) Free fatty acids (NEFA) assay: 45 μL of 5 nmoL standard and 0 nmoL control (0.2% BSA) were added to corresponding wells. 225 μL of reagent A was added in each well using the reagent tray and 12-channel pipette. The plate was incubated for 10 min before 75 μL of reagent B was added to each well using the reagent tray and 12-channel pipette. The plate was not covered due to the high volume. The absorbance at 550 nm and 660 nm was measured.
(§3) LPL assay was performed using Intralipid, high TG human plasma (1:50 dilution), or apoC-III transgenic mouse plasma (1:50 dilution). When Intralipid was used as a substrate, 25 or 50 μM recombinant ApoC-III was added as an inhibitor. When the high TG human plasma was used as a substrate, 25 or 50 μM recombinant ApoC-III was added as an inhibitor with or without pre-incubation at 37° C. for 1 hour. An apoC-II mimetic peptide was added at various concentrations.

[2] = test system: chylomicrons isolated from human plasma; assay: ApoC-III displacement study in chylomicrons isolated from human plasma; assay type: binding
Experimental: VLDL or chylomicrons isolated from human plasma were incubated with an apoC-II mimetic peptide for 1 hour at 37° C. and washed 3 times with PBS using spin filter with 100 kDa cutoff membrane. Supernatants were brought to the original volume with PBS and loaded to 4-12% Bis-TRIS SDS PAGE gel. ApoC-I, apoC-II, apoC-III, and apoE bands were identified by their corresponding size.

apoC-III transgenic mice [3] = assay: plasma TG and apoC-III of apoC-III transgenic mice after peptide injection; assay type: in vivo
Experimental: (§4) C57Bl/6 mice (wild-type), apoC-II knockout (apoC-II KO) mice, and apoC-III transgenic mice were used for in vivo study. The C57Bl/6 mice (wild-type) were purchased from Taconic Biosciences Inc. The apoC-II KO mice were created as described in Sakurai et al., J Pharmacol Exp Ther 356:341-353, 2016. The apoC-III transgenic mice were generated by overexpressing human apoC-III in C57Bl/6 mice. See Qu et al., J. Lipid Res. 48:1476-1487, 2007.
(§5) Mice were fasted overnight (approximately 12 hours) before the study and 6 hours during the study, the next day. The apoC-II mimetic peptides were synthetically produced and free of biological contamination (not available as FDA approved compounds/treatment). Peptides were produced and used in sterile conditions and filtered by 0.2 nm filter before injections in a single dose 1-10 μmol/kg body weight (B. W.) administered either subcutaneous injection (S.Q. or S.C.), intraperitoneal injection (I.P.) or intravenous injection (I.V.) (in a sterile, pharmaceutical grade PBS solution at a volume ≤200 μL) as described in Sakurai et al., J Pharmacol Exp Ther 356:341-353, 2016.

[4] = target: T1, LPL inhibited by apoC-III; assay: LPL assay using human apoC-II deficient plasma as substrate with recombinant apoC-III; assay type: biochemical; settings: 25 μM apoC-III, FIG. 50
Experimental: as §1, §2, §3

apoC-III transgenic mice [5] = assay: serum TG of apoC-III transgenic mice after Intralipid injection; assay type: in vivo; settings: peptide IP 1 hour after Intralipid, 5 and 10 μmole/kg, FIG. 39
Experimental: as §4
as §5, with “2016. […]” for “2016.”

[6] = ELISA, 5 μmole/kg, Day 1 and Day 5, 3 h after injection

| Sequence | effect on inhibition of LPL by apoC-III [1] | effect on inhibition of LPL by apoC-III ([1]; listed as ApoC-II-a) | affinity for chylomicrons compared with the apolipoproteins [2] | apoC-III level on HDL (apoC-III transgenic mice [3]; [6]) | apoC-III level on VLDL (apoC-III transgenic mice [3]; [6]) | plasma TG compared to control (apoC-III transgenic mice [3]; repeat IP injection at 24 h intervals for 5 days, 5 μmole/kg, 1 h, 3 h, 6 h after injection on Day 1 and Day 5) | plasma TG (apoC-III transgenic mice [3]; single intraperitoneal injection, 1, 5 and 10 μmole/kg, FIG. 38B) | time of maximum decrease of plasma TG (apoC-III transgenic mice [3]; single intraperitoneal injection, after the injection) | effect on inhibition of LPL by apoC-III [4] | serum TG increase after Intralipid injection (apoC-III transgenic mice [5]) |
| --- | --- | --- | --- | --- | --- | --- | --- | --- | --- | --- |
| DWLKAFYDKVAEKLKEAFPAMSTYTGIFTDQVLSVLKGEE (listed as Homo sapiens) [apoC-II-a, excluded from the claimed peptides] | overcame the inhibitory effect of apoC-III and facilitated lipolysis in a dose-dependent manner | overcomes the inhibition by apoC-III | higher affinity for chylomicrons than the apolipoproteins | – | – | – | – | – | – | – |
| DYLKEVFEKLRDLYEKFTPAVSTYTGIFTDQVLSVLKGEE [Delta6PV] | – | – | – | decreased | decreased | lower plasma TG | rapid and marked reduction of plasma TG | about 6 hours | overcame the inhibitory effect of apoC-III and facilitated lipolysis | the TG increase was significantly reduced |
